This note sets out measurements from patent publication US20030021810A1 (priority 2001, published 2003).

Holding throughout (assay type): cell-based
Test [1] concerns glioma cells. Description: in situ zymography of cell surface gelatinolytic activity. Particulars: 50 μM, 30 minutes at 37° C.
Experimental: FITC-labeled DQ gelatin which is intramolecularly quenched (Molecular Probes, Eugene, Oreg.) was used as a substrate for degradation by gelatinases as reported earlier (Oh et al., 1999). Proteolysis by gelatinases yields cleaved FITC-gelatin peptides and the localization of this fluorescence indicates the sites of net gelatinolytic activity. Briefly, glioma cells were plated on 12 mm coverslips. […] Untreated cells served as negative control for this experiment. Cells were then washed with PBS and then incubated with zymography reaction buffer (0.05 M Tris-HCl, 0.15 M NaCl, 5 mM CaCl2 and 0.2 mM NaN3, pH 7.6- the high concentration of azide will prevent the gelatin from phagocytosing and thus allow cell surface gelatinolytic activity to occur) containing 100 μg/ml DQ gelatin at 37° C. overnight. At the end of the incubation period, without fixation or further washes, gelatinolytic activity of the MMP-s was localized and photographed by fluorescence microscopy and the images were acquired by Spot digital camera.
Test [2] relates to glioma cells. Description: release of mature MMP-2 into conditioned media (Western blot, gelatinase activity assay). The settings on record: 50 μM. On the technique in general: Immunoblotting shows a protein as a band on a membrane.
Experimental: For these experiments, glioma cells were plated in 96 well (5000 cells/well) or 24 well plates (2.5×10^4/well) in serum containing medium (SCM). After overnight incubation, cell cultures were washed and incubated with serum free medium (SFM) for 24 hrs. Cells were then treated with His-Cltx at concentrations ranging from 30 nM to 3000 nM for 10 min or 30 min at 37° C. Cells were washed and replenished with serum free medium and at post-incubation periods of 10 min, 30 min and 24 hrs, conditioned media was collected from all samples and analyzed for matrix-metalloproteinase-2 activity by gelatinase activity assay as well as Western blots analysis for detection of matrix-metalloproteinase-2 protein. Cells treated with irrelevant His-protein were used as a negative control (untreated cells). […] Conditioned media from 10 wells were pooled for gelatinase activity assay as well as western blot analysis and data shown herein represents an average of three experiments.
The subject of test [3] is glioma cells. Description: matrigel invasion assay.
Text: Matrigel matrix is a reconstituted basement membrane isolated from Englebreth-Holm-Swarm (EHS) mouse sarcoma, a tumor rich in extracellular matrix proteins. Matrigel-invasion chamber consisted of falcon cell culture inserts of 8 μm pore-size with a uniform layer of matrigel matrix that occludes the membrane pores. […] Cells which remained in the upper chamber were scrubbed off the inserts and the invaded cells were fixed and stained with crystal violet.

Regarding `c1cnc2c(c1)ccc1cccnc12` [1-10 phenanthroline], the “inhibition of cell surface gelatinolytic activity versus 300 nM chlorotoxin” value with glioma cells [1] is listed as “comparable”. In the test with glioma cells [2], the “release of MMP-2 into the medium” value is “blocked the release”. Further, the “inhibition of invasion compared with chlorotoxin” value in the test on glioma cells [3] (glioma cells) is recorded as “essentially identical inhibition”. Besides, the “change of inhibition of glioma invasion” value in the test on glioma cells [3] (treatment with Filipin) is “only minimally affected”.
